Measurements taken from ChEMBL document CHEMBL1201862, “PubChem BioAssay data set” (2004).
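Values below derive from 48-hour exposures of cells grown in 96-well plates, with endpoints linearly interpolated between the two concentrations bracketing the appropriate inhibition level. At the GI50, growth is halved.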 Activity calls are given as the source filed them. Cut-off read from the data, not from the text of the source: active = GI50 up to about 1.1 µM and inactive = higher.

Columns and labels:
Assay in all cases: inhibition of tumour cell growth, NCI panel, 48 h
HL-60 = system: HL-60
MOLT-4 = system: MOLT-4
ACHN = system: ACHN
HT-29 = system: HT-29
MCF7 = system: MCF7
MDA-MB-435 = system: MDA-MB-435
CCRF-CEM = system: CCRF-CEM
Malme-3M = system: Malme-3M
A498 = system: A498
SNB-75 = system: SNB-75
RPMI-8226 = system: RPMI-8226
MDA-MB-231 = system: MDA-MB-231
NCI-H460 = system: NCI-H460
786-0 = system: 786-0
UO-31 = system: UO-31
SK-OV-3 = system: SK-OV-3
KM12 = system: KM12
CAKI-1 = system: CAKI-1
RXF 393 = system: RXF 393
TK-10 = system: TK-10
DU-145 = system: DU-145
HCT-116 = system: HCT-116
IGROV-1 = system: IGROV-1
OVCAR-3 = system: OVCAR-3
SK-MEL-28 = system: SK-MEL-28
SNB-19 = system: SNB-19
EKVX = system: EKVX
SW-620 = system: SW-620
COLO 205 = system: COLO 205
OVCAR-4 = system: OVCAR-4
A549 = system: A549
SK-MEL-5 = system: SK-MEL-5
SF-539 = system: SF-539
SF-295 = system: SF-295
SR = system: SR
HOP-92 = system: HOP-92
MDA-N = system: MDA-N
HOP-62 = system: HOP-62
PC-3 = system: PC-3
K562 = system: K562
HCC 2998 = system: HCC 2998
OVCAR-8 = system: OVCAR-8
BT-549 = system: BT-549
OVCAR-5 = system: OVCAR-5
SK-MEL-2 = system: SK-MEL-2
M14 = system: M14
UACC-62 = system: UACC-62
NCI-H226 = system: NCI-H226
UACC-257 = system: UACC-257
HCT-15 = system: HCT-15
SF-268 = system: SF-268
NCI/ADR-RES = system: NCI/ADR-RES
LOX IMVI = system: LOX IMVI
SN12C = system: SN12C
Hs-578T = system: Hs-578T

`COc1ccc(C(C2=C(O)COC2=O)c2cc3c(cc2O)OCO3)cc1OC` (stereo not given) was tested, and the GI50 (HL-60) was > 100 µM (inactive), the GI50 (MOLT-4) was > 100 µM (inactive) and the GI50 (ACHN) was > 100 µM (inactive). The GI50 (HT-29) was > 100 µM (inactive), the GI50 (MCF7) was > 100 µM (inactive) and the GI50 (MDA-MB-435) was > 100 µM (inactive). For the same compound, the GI50 (CCRF-CEM) was > 100 µM (inactive), the GI50 (Malme-3M) was > 100 µM (inactive) and the GI50 (A498) was > 100 µM (inactive). For the same compound, the GI50 (SNB-75) was > 100 µM (inactive), the GI50 (RPMI-8226) was > 100 µM (inactive) and the GI50 (MDA-MB-231) was > 100 µM (inactive). The GI50 (NCI-H460) was > 100 µM (inactive), the GI50 (786-0) was > 100 µM (inactive) and the GI50 (UO-31) was > 100 µM (inactive). For the same compound, the GI50 (SK-OV-3) was > 100 µM (inactive), the GI50 (KM12) was > 100 µM (inactive) and the GI50 (CAKI-1) was > 100 µM (inactive). For the same compound, the GI50 (RXF 393) was > 100 µM (inactive), the GI50 (TK-10) was > 100 µM (inactive) and the GI50 (DU-145) was > 100 µM (inactive). For the same compound, the GI50 (HCT-116) was > 100 µM (inactive), the GI50 (IGROV-1) was > 100 µM (inactive) and the GI50 (OVCAR-3) was > 100 µM (inactive). For the same compound, the GI50 (SK-MEL-28) was > 100 µM (inactive), the GI50 (SNB-19) was > 100 µM (inactive) and the GI50 (EKVX) was > 100 µM (inactive). For the same compound, the GI50 (SW-620) was > 100 µM (inactive), the GI50 (COLO 205) was > 100 µM (inactive) and the GI50 (OVCAR-4) was > 100 µM (inactive). The GI50 (A549) was > 100 µM (inactive), the GI50 (SK-MEL-5) was > 100 µM (inactive) and the GI50 (SF-539) was > 100 µM (inactive). The GI50 (SF-295) was > 100 µM (inactive), the GI50 (SR) was > 100 µM (inactive) and the GI50 (HOP-92) was > 100 µM (inactive). The GI50 (MDA-N) was > 100 µM (inactive), the GI50 (HOP-62) was > 100 µM (inactive) and the GI50 (PC-3) was > 100 µM (inactive). For the same compound, the GI50 (K562) was > 100 µM (inactive), the GI50 (HCC 2998) was > 100 µM (inactive) and the GI50 (OVCAR-8) was > 100 µM (inactive). For the same compound, the GI50 (BT-549) was > 100 µM (inactive), the GI50 (OVCAR-5) was > 100 µM (inactive) and the GI50 (SK-MEL-2) was > 100 µM (inactive). For the same compound, the GI50 (M14) was > 100 µM (inactive), the GI50 (UACC-62) was > 100 µM (inactive) and the GI50 (NCI-H226) was > 100 µM (inactive). For the same compound, the GI50 (UACC-257) was > 100 µM (inactive), the GI50 (HCT-15) was over 100 µM and the GI50 (SF-268) was > 100 µM (inactive). The GI50 (NCI/ADR-RES) was > 100 µM (inactive), the GI50 (LOX IMVI) was > 100 µM (inactive) and the GI50 (SN12C) was > 100 µM (inactive). The GI50 (Hs-578T) was > 100 µM (inactive).
